In PubChem BioAssay (NCI):
“And” between values parts separate entries of the source, which are not always exact repeats. Identical values can stand only once.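 Where inhibition never reached the appropriate level, the endpoint shown equals the highest concentration tested. Otherwise, values were interpolated linearly from a five-concentration, 48-hour dose response in 96-well plates. The concentration for 50% growth inhibition is given as GI50. Definition used: TGI = concentration required for complete inhibition of growth.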

Columns and labels:
Assay in all cases: growth of human tumour cells (NCI), 48 h; in the data active = GI50 below about 0.43 µM; inactive = the rest
[1] = system: OVCAR-3 ovarian
[2] = system: TK-10 renal
[3] = system: HL-60(TB) leukemia
[4] = system: SF-268 CNS
[5] = system: A549 NSCLC
[6] = system: SN12C renal
[7] = system: KM12 colon
[8] = system: NCI-H23 lung
[9] = system: RXF 393 renal
[10] = system: MALME-3M melanoma

C[C@]12CC[C@H](OC(=O)Nc3ccccc3)CC1=CC[C@@H]1C2CC[C@]2(C)/C(=N/OC(=O)Nc3ccccc3)CCC12 (some centres undefined)
> 100 µM: TGI [1] | TGI [2] | TGI [3] | TGI [4] | TGI [5] | TGI [7] | TGI [8]
3.32 µM: TGI [6]

COc1ccc(CN2c3ccccc3Sc3ccccc32)cc1O
15.6 µM: TGI [9]
0.661 µM: TGI [3]
20.5 µM: TGI [2] | TGI [4]
active: GI50 [9] 0.338 µM | GI50 [3] 0.257 µM | GI50 [8] 0.364 µM
inactive: GI50 [2] 2.52 µM | GI50 [10] 12.1 µM | GI50 [4] 0.966 µM | GI50 [5] 0.471 µM | GI50 [6] 1.29 µM
28.1 µM: TGI [10]
13.2 µM: TGI [8]
22.3 µM: TGI [6]
16.7 µM: TGI [5]

CC(=O)/C(=N\N=C(N)N)c1ccccc1
> 100 µM: TGI [9] | TGI [1] | TGI [2] | TGI [10] | TGI [4] | TGI [5] | TGI [6] | TGI [7] | TGI [8]

Cc1cc(C)nc(NC(=O)COc2ccc(Cl)cc2)c1
> 100 µM: TGI [9] | TGI [1] | TGI [2] | TGI [10] | TGI [4] | TGI [5] | TGI [6] | TGI [7] | TGI [8]

CC(NC1CCCC[C@@H]1O)c1ccccc1 (some centres undefined)
> 100 µM: TGI [9] | TGI [1] | TGI [2] | TGI [3] | TGI [10] | TGI [5] | TGI [6] | TGI [7]

Cn1cnnc1Sc1c([N+](=O)[O-])nc(-c2ccc([N+](=O)[O-])cc2)n1C
41.2 µM: TGI [7]
30.8 µM: TGI [1]
29.5 µM: TGI [10]
32.9 µM: TGI [2]
32.4 µM: TGI [8]
29.6 µM: TGI [6]
32.5 µM: TGI [4]
> 100 µM: TGI [5]

COc1ccccc1/C=C(\NC(=O)c1ccccc1)c1nc2ccccc2[nH]1
> 100 µM: TGI [9] | TGI [1] | TGI [2] | TGI [10] | TGI [4] | TGI [5] | TGI [6] | TGI [7] | TGI [8]

O=C(O)CCN1C(=S)CSC1=S
> 100 µM: TGI [9] | TGI [1] | TGI [2] | TGI [10] | TGI [4] | TGI [5] | TGI [6] | TGI [7] | TGI [8]

N.N.N.N.O=S([O-])[O-].[Co+3].[N-]=[N+]=[N-]
inactive: GI50 [1] > 100 µM | GI50 [2] > 100 µM | GI50 [3] > 100 µM | GI50 [10] > 100 µM | GI50 [4] > 100 µM | GI50 [5] > 100 µM | GI50 [6] > 100 µM | GI50 [7] > 100 µM | GI50 [8] > 100 µM
> 100 µM: TGI [1] | TGI [2] | TGI [3] | TGI [10] | TGI [4] | TGI [5] | TGI [6] | TGI [7] | TGI [8]

O=C(O)C12C=CC(C1)c1ccccc12 (centres undefined)
> 100 µM: TGI [1] | TGI [2] | TGI [3] | TGI [10] | TGI [4] | TGI [5] | TGI [6] | TGI [8]

Fc1ccc(-c2ncn(C3CCNCC3)c2-c2ccnc(Oc3ccc(Cl)cc3)n2)cc1
8.79 µM: TGI [7]
7.97 µM: TGI [2]
7.9 µM: TGI [1]
11.6 µM: TGI [3]
> 25 µM: TGI [4]
10.1 µM: TGI [10]
12.8 µM: TGI [5]
5.91 µM: TGI [9]
7.17 µM: TGI [6]
inactive: GI50 [9] 2.56 µM | GI50 [1] 4.09 µM | GI50 [2] 3.97 µM | GI50 [3] 4.96 µM | GI50 [10] 4.64 µM | GI50 [4] 8.67 µM | GI50 [5] 5.23 µM | GI50 [6] 3.67 µM | GI50 [7] 4.51 µM

CCCC(=O)Nc1cc(/C=C/C(=O)N2C[C@@H]3C[C@]34C2=CC(=O)c2[nH]cc(C)c24)n(C)c1
2.6 µM: TGI [7]
2.41 µM and 1.59 µM: TGI [6]
active: GI50 [9] 0.111 µM | GI50 [6] 0.064 µM | GI50 [8] 0.0119 µM
1.2 µM: TGI [1]
0.645 µM and 0.0939 µM: TGI [8]
4.89 µM: TGI [4]
0.298 µM and 0.238 µM: TGI [9]
0.337 µM: TGI [10]

CCCCn1c(-c2ccccc2)cs/c1=N\NC(=O)Cn1c(C)nc2ccccc21
56.2 µM: TGI [3]
94.1 µM: TGI [9]
> 100 µM: TGI [1] | TGI [2] | TGI [10] | TGI [5] | TGI [6] | TGI [7] | TGI [8]

NCCOCCOCC(=O)O
> 100 µM: TGI [9] | TGI [1] | TGI [2] | TGI [10] | TGI [4] | TGI [5] | TGI [6] | TGI [7] | TGI [8]

CNC(=O)NCCCCC(NC(C)=O)C(=O)NCc1ccccc1 (centres undefined)
> 100 µM: TGI [9] | TGI [1] | TGI [2] | TGI [10] | TGI [4] | TGI [5] | TGI [6] | TGI [7] | TGI [8]

COc1ccc(OCC(=O)O)c2c1CCC(C)C2=O (centres undefined)
> 100 µM: TGI [1] | TGI [2] | TGI [3] | TGI [10] | TGI [4] | TGI [5] | TGI [6] | TGI [7]

CCNc1ccc2c(c1)C(=O)N(OS(C)(=O)=O)C2=O
> 100 µM: TGI [9] | TGI [1] | TGI [2] | TGI [10] | TGI [4] | TGI [5] | TGI [6] | TGI [7] | TGI [8]

OC[C@H]1N[C@H](CO)[C@@H](O)[C@H]1O
> 100 µM: TGI [9] | TGI [2] | TGI [3] | TGI [10] | TGI [4] | TGI [5] | TGI [6] | TGI [7] | TGI [8]

BrCc1ccc2ccc3ccc(CBr)nc3c2n1
14.7 µM: TGI [7]
19.4 µM: TGI [8]
4.55 µM: TGI [6]
34.7 µM: TGI [5]
5.72 µM: TGI [2]
3.43 µM: TGI [1]
9.04 µM: TGI [4]
5.28 µM: TGI [3]
4.69 µM: TGI [9]

O=C(O)C1CC2C=CCC(C2)C1 (centres undefined)
> 100 µM: TGI [9] | TGI [1] | TGI [2] | TGI [3] | TGI [10] | TGI [4] | TGI [5] | TGI [7] | TGI [8]

CCCCS(=O)(=O)c1cc(Nc2ccc(O)c3c2C(=O)c2ccccc2C3=O)ccc1C
inactive: GI50 [9] 14.6 µM | GI50 [3] > 100 µM | GI50 [4] 57.7 µM | GI50 [5] 1.88 µM | GI50 [6] > 100 µM | GI50 [7] > 100 µM
> 100 µM: TGI [9] | TGI [3] | TGI [4] | TGI [5] | TGI [6] | TGI [7]

c1ccc(N2CCN(CCN3CCc4c([nH]c5ccccc45)C3c3cccnc3)CC2)cc1 (centres undefined)
> 100 µM: TGI [1] | TGI [2] | TGI [3] | TGI [4] | TGI [5] | TGI [6] | TGI [7] | TGI [8]

COc1c(OC2OC(C)C(O)C(O)C2O)c(OC)c2oc(-c3ccc(O)cc3)cc(=O)c2c1O (centres undefined)
> 100 µM: TGI [2] | TGI [10] | TGI [4] | TGI [5] | TGI [6] | TGI [7]
64.4 µM: TGI [1]
57.1 µM: TGI [8]
66.5 µM: TGI [9]
inactive: GI50 [9] 23.8 µM | GI50 [1] 21.5 µM | GI50 [2] 72.2 µM | GI50 [10] 34.2 µM | GI50 [4] 33.1 µM | GI50 [5] 32.3 µM | GI50 [6] 27.8 µM | GI50 [7] 39.7 µM | GI50 [8] 20.6 µM

O=c1cc(-c2ccccc2)oc2cc(OCCCCCCCCCCOc3ccc4c(=O)cc(-c5ccccc5)oc4c3)ccc12
> 100 µM: TGI [1] | TGI [3] | TGI [10] | TGI [5] | TGI [6] | TGI [7] | TGI [8]

O=C1c2ccccc2-c2c1c1ccccc1c(=O)n2CCNCCNCCNCCNCCn1c2c(c3ccccc3c1=O)C(=O)c1ccccc1-2
2.08 µM: TGI [3]
inactive: GI50 [1] 1.45 µM | GI50 [5] 0.59 µM | GI50 [7] 0.655 µM | GI50 [8] 0.615 µM
1.35 µM: TGI [2]
3.23 µM: TGI [5]
2.75 µM: TGI [8]
4.96 µM: TGI [1]
active: GI50 [2] 0.177 µM | GI50 [3] 0.216 µM | GI50 [4] 0.049 µM
5.32 µM: TGI [7]
0.808 µM: TGI [4]

COc1ccc(C2=NNC(c3sc(Cl)nc3Cl)C2)cc1 (centres undefined)
46.8 µM: TGI [9]
64.1 µM: TGI [3]
19.8 µM: TGI [7]
26.7 µM: TGI [8]
29 µM: TGI [10]
8.79 µM: TGI [1]
inactive: GI50 [9] 18.4 µM | GI50 [1] 3.26 µM | GI50 [3] 10.4 µM | GI50 [10] 11.2 µM | GI50 [4] 5.65 µM | GI50 [5] 29.8 µM | GI50 [6] 4.02 µM | GI50 [7] 5.56 µM | GI50 [8] 10.6 µM
27.5 µM: TGI [4]
16.7 µM: TGI [6]
> 100 µM: TGI [5]

O=C(O)C(Cc1ccccc1)N1C(=O)/C(=C/C(Cl)=C/c2ccc([N+](=O)[O-])cc2)SC1=S (centres undefined)
3.02 µM: TGI [9]
3.51 µM: TGI [1]
inactive: GI50 [9] 1.54 µM | GI50 [1] 1.76 µM | GI50 [10] 2.13 µM | GI50 [5] 3.46 µM | GI50 [7] 2.06 µM | GI50 [8] 2.13 µM
> 100 µM: TGI [5]
4.35 µM: TGI [7]
4.82 µM: TGI [10]
4.86 µM: TGI [8]

COC(=O)CCC(NC(=S)N/N=C(\C)c1cccs1)C(=O)OC (centres undefined)
> 100 µM: TGI [9] | TGI [1] | TGI [2] | TGI [10] | TGI [4] | TGI [5] | TGI [6] | TGI [7] | TGI [8]

COc1ccc(-c2cn3ccnc3c(-c3ccc(Cl)cc3)n2)cc1
> 100 µM: TGI [9] | TGI [3] | TGI [7]
40.3 µM: TGI [8]
71.8 µM: TGI [1]
99.3 µM: TGI [5]
46 µM: TGI [6]
inactive: GI50 [9] 28.2 µM | GI50 [1] 3.19 µM | GI50 [3] 5.14 µM | GI50 [4] 10.6 µM | GI50 [5] 7.49 µM | GI50 [6] 10.4 µM | GI50 [7] 4.68 µM | GI50 [8] 4.71 µM
64.8 µM: TGI [4]

C[C@@H]1CC2(C[C@@H](C)C3[C@@H](CC4(C)CCCC5C6=CC(O)(CC[C@]34C)OC6=CC(=O)OC5(C)C)O2)OC1=O (some centres undefined)
> 100 µM: TGI [9] | TGI [1] | TGI [2] | TGI [3] | TGI [10] | TGI [5] | TGI [6] | TGI [7] | TGI [8]
